The results in this text go back to article PMC5352194, “Toward the development of a novel non-RGD cyclic peptide drug conjugate for treatment of human metastatic melanoma” (Oncotarget, 2016).

For data set [1], the system named is non-malignant HEK293 cells. Briefly: Cell survival test (XTT assay), HEK293. It is filed as cell-based, human. The conditions noted are these: 48 hours, XTT (experiment repeated as for WM-266-4, 10μM), three repeats in quadruplicates. The procedure:
(§1) The cytotoxicity of the compounds was determined by measuring the mitochondrial enzyme activity, using a commercial XTT assay kit (#20-30-100, Biological Industries, Beit-Haemek, Israel) according to the manufacturer protocol using 2×10^3 cells/well of a 96–well plate. The cells were cultured for 24 hours in growth medium followed by additional 48 hours with growth medium supplemented with different concentrations of the tested substances. The absorbance of the XTT reagent was measured with a TECAN Infinite M200 ELISA reader. The absorbencies were normalized to the absorbance of cells grown in medium and solvent. All the tests were repeated three times in quadruplicates.
In general terms: Tetrazolium assays rely on reduction of a dye to a coloured formazan, in cell work by metabolically active cells.

For data set [2], the system named is WM-266-4 human metastatic melanoma cells. The experiment in a line: Cell survival test (XTT assay), WM-266-4. In kind it is cell-based. The conditions noted are these: WM-266-4 cells, 10μM, 48 hours, three repeats in quadruplicates. The procedure:
as §1

The next data set deals with WM-266-4 cells. Briefly: Confocal analysis of intracellular localization of CPT in live cells. In kind it is cell-based, human. The conditions noted are these: live WM-266-4 cells, 10 μM, 1 h, CPT fluorescence. An excerpt: Fluorescent images of ALOS4-FITC were acquired by Photometrics CoolSNAP HQ2 camera mounted on an Olympus iX81 fluorescent microscope. For confocal microscopy analysis the cells were transfected with a plasmid expressing GFP-fused histone H1E (pH1E-GFP) using Xfect polymer (ST0152, Clontech Laboratories, CA, USA) and were stained with CytoPainter Lysosomal Staining Kit - Red Fluorescence (ab112137, Abcam, Cambridge, MA, USA). Images were collected with a Zeiss LSM700 confocal microscope.

The test system of the next data set is γH2A.X in HEK293 cells. Briefly: Western blot, γH2A.X (DSBs) in HEK293 cells. In kind it is cell-based, human. Particulars: 3 hours. The protocol:
(§2) The cells were scraped and washed with PBS buffer. Cell lysates were prepared by sonication in 1 X SDS sample buffer supplemented with protease inhibitor cocktail (MBS539134, Millipore) and boiling for 10 min. The proteins were separated by SDS-PAGE and transferred to nitrocellulose membranes. The following antibodies were used for western blotting: active caspase 3 (C8487, Sigma), γH2AX (05-636, Millipore) and histone H3 (05-928, Millipore). The band intensities in a representative experiment were quantified by the ImageJ program.
In general terms: In western blotting, separated proteins are transferred to a membrane and probed.

Data set [3] deals with active caspase 3 in HEK293 cells. Briefly: Western blot, active caspase 3 in HEK293 cells. It is filed as cell-based, human. The protocol: as §2
Data set [4] is described as follows: Chemo-stability (lactone ring opening), LC-MS. In kind it is physicochemical. Particulars: chemical stability, 0.1 mM in PBS pH 7.4, 37°C, 5 h incubation, samples injected twice. The procedure:
Electron spray mass spectra (ESI-MS) were obtained using an Autoflex III smart-beam (MALDI, Bruker), Q-TOF micro (Waters) or an LCQ Fleet™ ion trap mass spectrometer (Finnigan/Thermo). HPLC/LC-MS analyses were made using Agilent infinity 1260 connected to Agilent quadruple LC-MS 6120 series equipped with ZORBAX SB-C18, 50 × 2.1 mm, 1.8 μm column. In all cases the eluent solvents were A (0.1% TFA in H2O) and B (0.1% TFA in ACN) and the elution gradient profile was: 100% A for first 4 min, 8 min (from min 4 to min 12) during which it reached 100% B, 4 min (from min 12 to min 16) of 100% B, 2 min (from min 16 to min 18) during which it returned back to A, and 2 min (from min 18 to min 20) of 100% A. The UV detection was at 254 nm. Column temperature was kept at 50°C. The flow rate was of 0.4 ml/min. The MS fragmentor was tuned on 100V on positive or negative mode.
0.1 mM CPT and ALOS4-CPT were incubated in acetate buffer at pH 4.5 and in PBS at pH 7.4 at 37°C. During the incubation period (24h - 144h), aliquots were removed at different time intervals, filtered and analyzed by LC-MS.

In the case of `CN(C)CCN1C(=O)c2cccc3cc(N)cc(c23)C1=O` [AM, Amonafide], the “Cell survival, % of the control cells” value is listed as 27% in data set [1] and 48% in data set [2].

As for `COc1cc([C@@H]2c3[nH]c4ccccc4c3C[C@H]3COC(=O)N32)cc(OC)c1O` [AZA, Azatoxin], the “Cell survival, % of the control cells” value in data set [1] was determined as 44%; in data set [2] it was 68%.

As to `CC[C@@]1(O)C(=O)OCc2c1cc1n(c2=O)Cc2cc3ccccc3nc2-1` [CPT, Camptothecin], the “Intracellular localization of CPT” value in the data set on WM-266-4 cells was “accumulation of CPT inside the nucleus and to some less degree in the lysosome”. Moreover, the “Increase in the levels of γH2A.X” value in the data set with γH2A.X in HEK293 cells is on record as approximately 2 fold. The “Increase in the levels of active caspase 3” value in data set [3] (3 hours) is listed as approximately 2 fold; in data set [3] (24 hours) it was “more than 5 fold”. Further, the “CPT that underwent lactone ring opening to carboxylate” value in data set [4] is approximately 40%. In addition, the “Cell survival, % of the control cells” value is 16% in data set [1] and 65% in data set [2].
